Several values for one entry are separate records, joined by “and”; a condition that tells them apart may be missing. Equal values may be shown once.
Tests used:
Format in all cases: biochemical
DPP4 = DPP4 (Homo sapiens, UniProt P27487); assay: DPP4 inhibition, fluorogenic substrate H-Gly-Pro-AMC; parameters: purchased R&D Systems; settings: recombinant human DPP4
recombinant human PREP = target: T1, recombinant human PREP (Homo sapiens, UniProt P48147); assay: PREP inhibition, fluorogenic substrate Z-Gly-Pro-AMC; settings: Inhibitory Activity (IC50, nM) PREP, recombinant human PREP
T1 construct: purchased R&D System
T1 sequence (P48147 1-710): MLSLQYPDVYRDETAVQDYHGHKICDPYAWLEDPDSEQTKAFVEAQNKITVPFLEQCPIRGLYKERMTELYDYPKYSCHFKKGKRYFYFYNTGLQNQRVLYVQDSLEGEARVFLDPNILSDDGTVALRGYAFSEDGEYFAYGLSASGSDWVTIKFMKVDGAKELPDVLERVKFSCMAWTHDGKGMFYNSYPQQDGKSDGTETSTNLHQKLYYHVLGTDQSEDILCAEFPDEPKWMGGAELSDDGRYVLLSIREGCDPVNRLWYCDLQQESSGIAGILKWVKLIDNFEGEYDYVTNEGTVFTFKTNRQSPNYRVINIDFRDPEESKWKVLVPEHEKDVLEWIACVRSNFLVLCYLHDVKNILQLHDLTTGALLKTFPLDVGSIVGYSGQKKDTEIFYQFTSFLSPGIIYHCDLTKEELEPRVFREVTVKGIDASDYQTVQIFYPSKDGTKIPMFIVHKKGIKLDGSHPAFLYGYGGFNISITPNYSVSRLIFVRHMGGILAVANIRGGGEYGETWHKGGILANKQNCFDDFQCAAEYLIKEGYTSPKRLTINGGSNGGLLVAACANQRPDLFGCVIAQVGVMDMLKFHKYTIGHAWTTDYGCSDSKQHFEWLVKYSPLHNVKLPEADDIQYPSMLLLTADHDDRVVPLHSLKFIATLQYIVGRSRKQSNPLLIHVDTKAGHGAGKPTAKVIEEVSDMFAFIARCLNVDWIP
Method in brief: (§1)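 Inhibitors are titrated in an 8-point series into the enzyme's assay buffer (DMSO no more than 0.5%). Substrate cleavage at 25 °C is followed by fluorescence, excitation 380 nm and emission 460 nm. IC50 values come from a four-variable logistic model.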

recombinant human DPP9 = target: T2, recombinant human DPP9 (Homo sapiens, UniProt Q86TI2); assay: DPP9 inhibition, fluorogenic substrate H-Gly-Pro-AMC; settings: recombinant human DPP9
T2 construct: purchased R&D Systems
Method in brief: as §1

recombinant human DPP8 = target: T3, recombinant human DPP8 (Homo sapiens, UniProt Q6V1X1); assay: DPP8 inhibition, fluorogenic substrate Z-Ala-Pro-AMC; settings: recombinant human DPP8
T3 construct: purchased PBS Bioscience
Method in brief: as §1

Sequence of DPP4 (P27487 whole entry): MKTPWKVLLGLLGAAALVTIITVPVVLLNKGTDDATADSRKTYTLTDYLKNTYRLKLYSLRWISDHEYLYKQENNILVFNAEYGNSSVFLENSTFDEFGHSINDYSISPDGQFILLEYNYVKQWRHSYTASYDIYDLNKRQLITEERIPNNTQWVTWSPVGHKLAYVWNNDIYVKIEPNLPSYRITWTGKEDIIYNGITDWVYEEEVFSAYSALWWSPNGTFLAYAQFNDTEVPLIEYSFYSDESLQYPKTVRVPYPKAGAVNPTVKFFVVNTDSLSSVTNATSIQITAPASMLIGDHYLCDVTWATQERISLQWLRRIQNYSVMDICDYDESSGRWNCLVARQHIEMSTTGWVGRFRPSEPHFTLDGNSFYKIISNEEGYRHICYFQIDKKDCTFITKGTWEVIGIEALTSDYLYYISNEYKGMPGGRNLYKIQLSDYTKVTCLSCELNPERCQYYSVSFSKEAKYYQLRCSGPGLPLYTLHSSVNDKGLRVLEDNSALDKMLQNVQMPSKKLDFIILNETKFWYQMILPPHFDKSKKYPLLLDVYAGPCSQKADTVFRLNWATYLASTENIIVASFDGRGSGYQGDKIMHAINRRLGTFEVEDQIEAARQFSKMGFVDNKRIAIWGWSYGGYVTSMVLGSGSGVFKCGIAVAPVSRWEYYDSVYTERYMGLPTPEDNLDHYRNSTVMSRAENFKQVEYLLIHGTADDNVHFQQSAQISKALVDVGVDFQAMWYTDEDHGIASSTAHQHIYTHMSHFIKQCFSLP
T2 sequence (Q86TI2 whole entry): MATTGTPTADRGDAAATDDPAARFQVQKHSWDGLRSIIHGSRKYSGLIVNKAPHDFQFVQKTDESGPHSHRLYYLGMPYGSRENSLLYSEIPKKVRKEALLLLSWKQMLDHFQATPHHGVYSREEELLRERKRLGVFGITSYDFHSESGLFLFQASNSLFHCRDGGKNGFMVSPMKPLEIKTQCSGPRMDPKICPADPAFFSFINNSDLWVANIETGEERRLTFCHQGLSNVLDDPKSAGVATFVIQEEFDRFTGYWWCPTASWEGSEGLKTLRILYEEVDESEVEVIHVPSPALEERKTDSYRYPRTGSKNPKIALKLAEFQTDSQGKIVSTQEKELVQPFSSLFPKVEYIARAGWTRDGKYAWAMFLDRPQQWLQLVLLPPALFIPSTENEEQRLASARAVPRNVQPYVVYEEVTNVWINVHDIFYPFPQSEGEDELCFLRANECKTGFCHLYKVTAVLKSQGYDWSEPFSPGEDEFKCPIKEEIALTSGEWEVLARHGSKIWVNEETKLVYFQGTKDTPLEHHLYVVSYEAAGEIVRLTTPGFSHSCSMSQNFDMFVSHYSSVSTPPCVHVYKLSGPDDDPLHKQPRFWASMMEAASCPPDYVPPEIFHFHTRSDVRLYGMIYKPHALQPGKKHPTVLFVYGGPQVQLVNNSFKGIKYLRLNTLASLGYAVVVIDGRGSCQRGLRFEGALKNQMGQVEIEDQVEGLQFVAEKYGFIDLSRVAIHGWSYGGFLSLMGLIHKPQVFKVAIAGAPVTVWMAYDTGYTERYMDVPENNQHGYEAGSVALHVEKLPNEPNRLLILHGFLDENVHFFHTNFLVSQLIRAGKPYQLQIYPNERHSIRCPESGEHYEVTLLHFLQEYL
T3 sequence (Q6V1X1 whole entry): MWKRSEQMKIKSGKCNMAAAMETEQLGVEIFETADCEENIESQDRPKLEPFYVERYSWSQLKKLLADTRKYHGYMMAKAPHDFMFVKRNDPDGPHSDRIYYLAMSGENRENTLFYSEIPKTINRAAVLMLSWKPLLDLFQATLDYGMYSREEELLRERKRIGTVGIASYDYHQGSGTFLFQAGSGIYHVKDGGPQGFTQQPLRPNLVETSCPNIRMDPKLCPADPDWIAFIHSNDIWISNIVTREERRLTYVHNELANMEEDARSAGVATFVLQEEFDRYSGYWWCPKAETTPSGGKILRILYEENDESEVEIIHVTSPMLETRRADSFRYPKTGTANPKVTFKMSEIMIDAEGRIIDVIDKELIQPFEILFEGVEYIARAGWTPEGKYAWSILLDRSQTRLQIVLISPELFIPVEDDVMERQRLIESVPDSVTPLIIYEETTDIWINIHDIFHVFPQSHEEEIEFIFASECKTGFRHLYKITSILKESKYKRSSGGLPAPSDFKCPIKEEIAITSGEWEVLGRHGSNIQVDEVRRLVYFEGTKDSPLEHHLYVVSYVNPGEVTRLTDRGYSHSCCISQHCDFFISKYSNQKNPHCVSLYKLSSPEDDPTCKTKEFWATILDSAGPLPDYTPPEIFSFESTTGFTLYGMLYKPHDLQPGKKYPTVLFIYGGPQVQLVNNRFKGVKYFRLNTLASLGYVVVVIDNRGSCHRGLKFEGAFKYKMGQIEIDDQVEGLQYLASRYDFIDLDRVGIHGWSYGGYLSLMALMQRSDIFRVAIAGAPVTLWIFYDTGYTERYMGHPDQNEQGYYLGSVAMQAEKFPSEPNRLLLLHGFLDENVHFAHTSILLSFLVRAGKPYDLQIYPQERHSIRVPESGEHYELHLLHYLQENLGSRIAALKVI

SMILES	IC50 (DPP4) [µM]	IC50 (recombinant human PREP)	IC50 (recombinant human DPP9) [µM]	IC50 (recombinant human DPP8) [µM]
N#C[C@@H]1C[C@H](F)CN1C(=O)CN1CC[C@H](Nc2cccc3ncccc23)C1 [Example 228, (2S,4S)-4-fluoro-1-[2-[(3S)-3-(5-quinolylamino)pyrrolidin-1-yl]acetyl]pyrrolidine-2-carbonitrile]	> 100	4290 nM	7.48	10.8
N#Cc1cnc2cccc(N[C@H]3CCN(CC(=O)N4CCC[C@H]4C#N)C3)c2c1 [Example 232, 5-[[(3S)-1-[2-oxo-2-[(2S)-2-cyanopyrrolidin-1-yl]ethyl]pyrrolidin-3-yl]amino]quinoline-3-carbonitrile]	> 10	13700 nM	29	> 100
COc1cnc2cccc(N[C@H]3CCN(CC(=O)N4CCC[C@H]4C#N)C3)c2c1 [Example 233, (2S)-1-[2-[(3S)-3-[(3-methoxy-5-quinolyl)amino]pyrrolidin-1-yl]acetyl]pyrrolidine-2-carbonitrile]	37.8	11500 nM	21.2	28.1
N#C[C@@H]1CCCN1C(=O)CN1CC[C@H](Nc2ccc(F)c3ncccc23)C1 [Example 244, (2S)-1-[2-[(3S)-3-[(8-fluoro-5-quinolyl)amino]pyrrolidin-1-yl]acetyl]pyrrolidine-2-carbonitrile]	> 10	11100 nM	31.9	32.7
N#C[C@@H]1CCCN1C(=O)CN1CC[C@H](Nc2ccc(C(F)(F)F)c3ncccc23)C1 [Example 245, (2S)-1-[2-[(3S)-3-[[8-(trifluoromethyl)-5-quinolyl]amino]pyrrolidin-1-yl]acetyl]pyrrolidine-2-carbonitrile]	> 10	9470 nM	> 100	> 100
N#Cc1ccc(N[C@H]2CCN(CC(=O)N3CCC[C@H]3C#N)C2)c2cccnc12 [Example 247, 5-[[(3S)-1-[2-oxo-2-[(2S)-2-cyanopyrrolidin-1-yl]ethyl]pyrrolidin-3-yl]amino]quinoline-8-carbonitrile]	> 10	> 10000 nM	> 100	> 100
N#C[C@@H]1C[C@H](F)CN1C(=O)CN1CC[C@H](Nc2cccc3ncc(F)cc23)C1 [Example 255, (2S,4S)-4-fluoro-1-[2-[(3S)-3-[(3-fluoro-5-quinolyl)amino]pyrrolidin-1-yl]acetyl]pyrrolidine-2-carbonitrile]	2.41	2210 nM	7.36	5.1
COc1ccc(N[C@H]2CCN(CC(=O)N3C[C@@H](F)C[C@H]3C#N)C2)c2cccnc12 [Example 263, (2S,4S)-4-fluoro-1-[2-[(3S)-3-[(8-methoxy-5-quinolyl)amino]pyrrolidin-1-yl]acetyl]pyrrolidine-2-carbonitrile]	0.792	3470 nM	3.83	3.57
N#C[C@@H]1C[C@H](F)CN1C(=O)CN1CC[C@H](Nc2ccc(OC(F)(F)F)c3ncccc23)C1 [Example 266, (2S,4S)-4-fluoro-1-[2-[(3S)-3-[[8-(trifluoromethoxy)-5-quinolyl]amino]pyrrolidin-1-yl]acetyl]pyrrolidine-2-carbonitrile]	1.31	3170 nM	4.38	> 10
N#C[C@@H]1C[C@H](F)CN1C(=O)CN1CC[C@H](Nc2ccc(OCc3ccccc3)c3ncccc23)C1 [Example 268, (2S,4S)-4-fluoro-1-[2-[(3S)-3-[(8-benzyloxy-5-quinolyl)amino]pyrrolidin-1-yl]acetyl]pyrrolidine-2-carbonitrile]	0.574	3520 nM	0.877	1.11
N#C[C@@H]1C[C@H](F)CN1C(=O)CN1CCC(Nc2ccc(C(F)(F)F)c3ncccc23)CC1 [Example 334, (2S,4S)-4-fluoro-1-[2-[4-[[8-(trifluoromethyl)-5-quinolyl]amino]-1-piperidyl]acetyl]pyrrolidine-2-carbonitrile]	7.76	2300 nM and 2780 nM	1.09	–
N#C[C@@H]1C[C@H](F)CN1C(=O)CN1CCC(Nc2ccc(OC(F)(F)F)c3ncccc23)CC1 [Example 347, (2S,4S)-4-fluoro-1-[2-[4-[[8-(trifluoromethoxy)-5-quinolyl]amino]-1-piperidyl]acetyl]pyrrolidine-2-carbonitrile]	2.66	4580 nM	2.96	2.62
COc1cnc2cccc(NC3CCN(CC(=O)N4C[C@@H](F)C[C@H]4C#N)CC3)c2c1 [Example 348, (2S,4S)-4-fluoro-1-[2-[4-[(3-methoxy-5-quinolyl)amino]-1-piperidyl]acetyl]pyrrolidine-2-carbonitrile]	3.6	10000 nM	6.2	2.44
N#C[C@@H]1C[C@H](F)CN1C(=O)CN1CCC(Nc2cccc3ncc(F)cc23)CC1 [Example 349, (2S,4S)-4-fluoro-1-[2-[4-[(3-fluoro-5-quinolyl)amino]-1-piperidyl]acetyl]pyrrolidine-2-carbonitrile]	1.89	5200 nM	5.06	2.9
N#C[C@@H]1C[C@H](F)CN1C(=O)CN1CCC(Nc2cccc3cnc(Cl)cc23)CC1 [Example 352, (2S,4S)-1-[2-[4-[(3-chloro-5-isoquinolyl)amino]-1-piperidyl]acetyl]-4-fluoro-pyrrolidine-2-carbonitrile]	> 10	10700 nM	9.77	> 10
COc1cc2c(NC3CCN(CC(=O)N4C[C@@H](F)C[C@H]4C#N)CC3)cccc2cn1 [Example 355, (2S,4S)-4-fluoro-1-[2-[4-[(3-methoxy-5-isoquinolyl)amino]-1-piperidyl]acetyl]pyrrolidine-2-carbonitrile]	5.25	14200 nM	9.86	> 100
Cc1ccc2nccc(OC3CCN(CC(=O)N4C[C@@H](F)C[C@H]4C#N)CC3)c2c1 [Example 410, (2S,4S)-4-fluoro-1-[2-[4-[(6-methyl-4-quinolyl)oxy]-1-piperidyl]acetyl]pyrrolidine-2-carbonitrile]	> 10	3170 nM	17.7	10.7

From patent US11655235B2, “Pyrrolidine and piperidine compounds” (YUHAN CORPORATION, priority 2019, dated 2023)
